Patent publication US8431597B2, “Benzimidazole derivatives” (Pfizer Inc., priority 2007, dated 2013)
Counter-ions that a name gives are not always drawn.

Molecular target: T1, Smoothened (SMO) (Mus musculus, UniProt P56726)
T1 construct: C3H10T1/2 cells (ATCC #CCL-226) were split and seeded; endogenous in cells; host or cells: C3H10T1/2 (ATCC #CCL-226)
Test: Smoothened (SMO)/Sonic Hedgehog (SHh) Transient Transcriptional Activation Assay (Gli-luciferase reporter in C3H10T1/2 cells)
Assay type: cell-based, murine
Details: C3H 10T1/2, 2 μM compound; transfected C3H10T1/2 cells, recombinant human SHh 250 ng/mL, 20 hours, luciferase readout; read-out: SMO CELL % INHIBITION @ 2 μM
Experimental: As noted above, the compounds of the invention are useful as inhibitors of SMO. • Methods for determining the in vitro activity of these compounds are described below: Smoothened (SMO)/Sonic Hedgehog (SHh) Transient Transcriptional Activation Assay
On Day 1, 2×10^6 C3H10T1/2 cells (ATCC #CCL-226) were split and seeded in 12 mL of growth medium Basal Medium Eagle (BME, Invitrogen #21010-046) supplemented with 2 mM L-glutamine (Invitrogen #25030-081), 0.1 units/mL penicillin and 0.1 μg/mL streptomycin (Invitrogen #15140-122), and 10% Fetal Bovine Serum (FBS, Invitrogen #16140-071) in a T-75 flask (Costar #3376). They were allowed to attach for 4 hours at 37° C., 5% CO2. The cells were then transfected using Fugene 6 (Roch #11 814 443 001) in the following reaction: 48 μL Fugene 6 and 745 μL Opti-MEM (Invitrogen #31985-070) were mixed and allowed to sit at room temperature for 5 minutes. 8 μg of pGL4.14/mGli(CS) DNA (10× murine Gli response elements and minimal CS promoter) and 0.5 μg of pEGFP DNA (Clontech) were added, gently mixed and incubated at room temperature for 20 minutes. This entire transfection mix was then added to the T-75 flask containing the cells. The cells were incubated at 37° C., 5% CO2 for 18-24 hours.
On Day 2, the transfected cells were trypsinized and seeded into white 96 well plates (Costar #3917) in 100 μL/well of growth medium at a concentration of 20,000 cells/well. The cells were allowed to recover for 4 hours before adding serum starvation medium Dulbecco's Modified Eagle Medium (DMEM, Invitrogen #21063-029) supplemented with 2 mM L-glutamine, 0.1 units/mL penicillin and 0.1 μg/mL streptomycin, and 0.5% Calf Serum (CS, Invitrogen #26170-043). The growth media was aspirated off, and the cells were rinsed with 100 μL of starvation media. 95 μL of starvation media was then added to each well. The cells were incubated for 20 hours at 37° C., 5% CO2.
On Day 3, cells were dosed with test compounds at a final concentration ranging from 2 μM to 2 nM. Immediately after dosing cells with compounds, recombinant human sonic hedgehog (SHh, R&D Systems #1845-SH) was add to a final concentration of 250 ng/mL. A 25 μg vial of SHh was reconstituted with 250 μL PBS/0.1% BSA to give a 100 ng/μL working stock. This working stock was then diluted 1:20 in starvation media. The transfected cells were incubated with compounds and SHh for 20 hours at 37° C., 5% CO2.
Luciferase assays were conducted on Day 4 using Dual-Glo Luciferase assay system (Promega #E2940) according to Promega's protocol. Briefly, Dual-Glo luciferase reagent was made up and 100 μL were added to each well of the 96 well plate containing media. Plates were shaken at room temperature for 10 minutes, and then read on TopCount (Perkin-Elmer). The luminescence was recorded.

T1 sequence (P56726 33-793): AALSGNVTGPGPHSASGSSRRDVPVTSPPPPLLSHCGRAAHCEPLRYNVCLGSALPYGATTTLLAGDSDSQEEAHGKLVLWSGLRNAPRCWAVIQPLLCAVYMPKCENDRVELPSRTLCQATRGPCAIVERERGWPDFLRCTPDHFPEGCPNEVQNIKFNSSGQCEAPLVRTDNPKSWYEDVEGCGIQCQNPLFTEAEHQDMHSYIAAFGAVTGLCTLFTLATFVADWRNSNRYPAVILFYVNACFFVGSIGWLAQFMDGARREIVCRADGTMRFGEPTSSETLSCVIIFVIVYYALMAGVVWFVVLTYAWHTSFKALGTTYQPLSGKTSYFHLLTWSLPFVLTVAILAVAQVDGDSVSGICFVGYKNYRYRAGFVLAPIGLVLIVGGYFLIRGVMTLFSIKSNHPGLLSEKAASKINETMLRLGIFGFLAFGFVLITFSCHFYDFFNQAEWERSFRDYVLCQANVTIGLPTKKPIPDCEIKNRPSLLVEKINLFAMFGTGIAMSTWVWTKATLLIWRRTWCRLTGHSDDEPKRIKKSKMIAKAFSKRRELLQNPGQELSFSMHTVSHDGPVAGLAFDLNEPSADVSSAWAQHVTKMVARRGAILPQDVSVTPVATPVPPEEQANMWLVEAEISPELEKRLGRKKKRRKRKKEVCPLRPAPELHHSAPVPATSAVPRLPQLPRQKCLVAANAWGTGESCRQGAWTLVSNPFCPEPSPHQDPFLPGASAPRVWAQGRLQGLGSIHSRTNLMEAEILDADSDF

Row | SMILES | inhibition at 2 µM [%]
1 | Cc1cc2nc([C@H]3C[C@H](NC(=O)c4ccc5c(c4)OCCO5)CCN3C)[nH]c2cc1C [Example 49, N-[(2R,4R)-2-(5,6-dimethyl-1H-benzimidazol-2-yl)-1-methylpiperidin-4-yl]-2,3-dihydro-1,4-benzodioxine-6-carboxamide hydrochloride] | 105
2 | COc1ccc2[nH]c([C@H]3C[C@H](NC(=O)Nc4ccc(C(F)(F)F)nc4)CCN3C)nc2c1 [Example 62, 1-[(2R,4R)-2-(5-methoxy-1H-benzimidazol-2-yl)-1-methylpiperidin-4-yl]-3-[6-(trifluoromethyl)pyridin-3-yl]urea hydrochloride] | 104
3 | CC(=O)c1c(C)[nH]c(C(=O)N[C@@H]2CCN(C)[C@@H](c3nc4ccccc4[nH]3)C2)c1C [Example 50, 4-acetyl-N-[(2R,4R)-2-(1H-benzimidazol-2-yl)-1-methylpiperidin-4-yl]-3,5-dimethyl-1H-pyrrole-2-carboxamide hydrochloride] | 105
4 | CC(C)CN1CC[C@@H](NC(=O)Nc2ccc(C#N)cc2)C[C@@H]1c1nc2ccccc2[nH]1 [Example 39, 1-[(2R,4R)-2-(1H-benzimidazol-2-yl)-1-isobutylpiperidin-4-yl]-3-(4-cyanophenyl)urea] | 106
5 | Cc1ccc2nc([C@H]3C[C@H](NC(=O)c4ccc5c(c4)OCCO5)CCN3C)[nH]c2c1 (stereo in doubt) [Example 6, 2,3-Dihydro-benzo[1,4]dioxine-6-carboxylic acid [1-methyl-2-(6-methyl-1H-benzoimidazol-2-yl)-piperidin-4-yl]-amide hydrochloride] | 105
6 | Cc1ccc2nc([C@@H]3C[C@@H](NC(=O)Nc4ccc(Cl)c(C(F)(F)F)c4)CN3C(C)C)[nH]c2c1 [Example 23, 1-[4-chloro-3-(trifluoromethyl)phenyl]-3-[(3R,5S)-1-isopropyl-5-(6-methyl-1H-benzimidazol-2-yl)pyrrolidin-3-yl]urea] | 100
7 | Cc1ccc2[nH]c([C@H]3C[C@H](NC(=O)Nc4ccc(C#N)cc4)CCN3C)nc2c1 [Example 36, 1-(4-cyanophenyl)-3-[(2R,4R)-1-methyl-2-(5-methyl-1H-benzimidazol-2-yl)piperidin-4-yl]urea hydrochloride] | 107
8 | COc1ccc(NC(=O)N[C@@H]2CCN(C)[C@@H](c3nc4ccc(F)cc4[nH]3)C2)cn1 [Example 139, 1-[(2R,4R)-2-(6-fluoro-1H-benzimidazol-2-yl)-1-methylpiperidin-4-yl]-3-(6-methoxypyridin-3-yl)urea hydrochloride] | 106
9 | CCN1CC[C@@H](NC(=O)c2ccc3c(c2)OCCO3)C[C@@H]1c1nc2ccccc2[nH]1 [Example 44, N-[(2R,4R)-2-(1H-benzimidazol-2-yl)-1-ethylpiperidin-4-yl]-2,3-dihydro-1,4-benzodioxine-6-carboxamide hydrochloride] | 105
10 | Cc1ccc2[nH]c([C@H]3C[C@H](NC(=O)Nc4ccc(C)nc4)CCN3C3CCC3)nc2c1 [Example 151, 1-[(2R,4R)-1-cyclobutyl-2-(5-methy-1H-benzimidazol-2-yl)piperidin-4-yl]-3-(6-methylpyridin-3-yl)urea triflouroacetate] | 107
11 | CN1CC[C@@H](NC(=O)Nc2ccc(C#N)cc2)C[C@@H]1c1nc2cc(Cl)ccc2[nH]1 [Example 64, 1-[(2R,4R)-2-(5-chloro-1H-benzimidazol-2-yl)-1-methylpiperidin-4-yl]-3-(4-cyanophenyl)urea hydrochloride] | 103
12 | CN1C[C@@H](NC(=O)c2ccc3c(c2)OCCO3)C[C@H]1c1nc2ccccc2[nH]1 [Example 21, N-[(3S,5S)-5-(1H-benzimidazol-2-yl)-1-methylpyrrolidin-3-yl]-2,3-dihydro-1,4-benzodioxine-6-carboxamide] | 61.8

The next lines start with the values.

Row | inhibition at 2 µM [%] | SMILES
13 | 102 | CN1CC[C@@H](NC(=O)c2ccc(C(=O)C(F)(F)F)cc2)C[C@@H]1c1nc2ccccc2[nH]1 [Example 68, N-[(2R,4R)-2-(1H-benzimidazol-2-yl)-1-methylpiperidin-4-yl]-4-(trifluoroacetyl)benzamide]
14 | 63.7 | CN1CC[C@@H](NC(=O)Cc2ccccc2F)C[C@@H]1c1nc2ccccc2[nH]1 [Example 120, N-[(2R,4R)-2-(1H-benzimidazol-2-yl)-1-methylpiperidin-4-yl]-2-(2-fluorophenyl)acetamide trifluoroacetate]
15 | 92.3 | CN1CC[C@@H](NC(=O)c2ccc3c(c2)CCC(=O)N3)C[C@@H]1c1nc2ccccc2[nH]1 [Example 87, N-[(2R,4R)-2-(1H-benzimidazol-2-yl)-1-methylpiperidin-4-yl]-2-oxo-1,2,3,4-tetrahydroquinoline-6-carboxamide hydrochloride]
16 | 108 | CN1CC[C@@H](NC(=O)c2ccc3c(c2Cl)OCCO3)C[C@@H]1c1nc2ccccc2[nH]1 [Example 144, N-[(2R,4R)-2-(1H-benzimidazol-2-yl)-1-methylpiperidin-4-yl]-5-chloro-2,3-dihydro-1,4-benzodioxine-6-carboxamide triflouroacetate]
17 | 86.4 | CN1CC[C@@H](NC(=O)Cn2cc3ccccc3n2)C[C@@H]1c1nc2ccccc2[nH]1 [Example 108, N-[(2R,4R)-2-(1H-benzimidazol-2-yl)-1-methylpiperidin-4-yl]-2-(2H-indazol-2-yl)acetamide trifluoroacetate]
18 | 50.6 | Cc1cc(C(=O)N[C@@H]2CCN(C)[C@@H](c3nc4ccccc4[nH]3)C2)n(C(C)(C)C)n1 [Example 124, N-[(2R,4R)-2-(1H-benzimidazol-2-yl)-1-methylpiperidin-4-yl]-1-tert-butyl-3-methyl-1H-pyrazole-5-carboxamide trifluoroacetate]
19 | 97.8 | CN1CC[C@@H](NC(=O)[C@@H]2COc3ccccc3O2)C[C@@H]1c1nc2ccccc2[nH]1 [Example 105, (2S)-N-[(2R,4R)-2-(1H-benzimidazol-2-yl)-1-methylpiperidin-4-yl]-2,3-dihydro-1,4-benzodioxine-2-carboxamide trifluoroacetate]
20 | 75.5 | CN1CC[C@@H](NC(=O)Cc2nc3ccccc3o2)C[C@@H]1c1nc2ccccc2[nH]1 [Example 114, N-[(2R,4R)-2-(1H-benzimidazol-2-yl)-1-methylpiperidin-4-yl]-2-(1,3-benzoxazol-2-yl)acetamide trifluoroacetate]
21 | 83.2 | COc1ccc(C(=O)N[C@@H]2CCN(C)[C@@H](c3nc4ccccc4[nH]3)C2)cc1 [Example 111, N-[(2R,4R)-2-(1H-benzimidazol-2-yl)-1-methylpiperidin-4-yl]-4-methoxybenzamide trifluoroacetate]
22 | 100 | CN1CC[C@@H](NC(=O)NCc2ccccc2)C[C@@H]1c1nc2ccccc2[nH]1 [Example 76, 1-[(2R,4R)-2-(1H-benzimidazol-2-yl)-1-methylpiperidin-4-yl]-3-benzylurea hydrochloride]
23 | 76.3 | COc1cncc(NC(=O)N[C@@H]2CCN(C)[C@@H](c3nc4ccccc4[nH]3)C2)c1 [Example 96, 1-[(2R,4R)-2-(1H-benzimidazol-2-yl)-1-methylpiperidin-4-yl]-3-(5-methoxypyridin-3-yl)urea hydrochloride]
24 | 62.5 | CN1CC[C@@H](NC(=O)Nc2ccc(C(F)(F)F)cn2)C[C@@H]1c1nc2ccccc2[nH]1 [Example 101, 1-[(2R,4R)-2-(1H-benzimidazol-2-yl)-1-methylpiperidin-4-yl]-3-[5-(trifluoromethyl)pyridin-2-yl]urea hydrochloride]
25 | 76.1 | CN1CC[C@@H](NC(=O)c2cc3ccccc3n2C)C[C@@H]1c1nc2ccccc2[nH]1 [Example 113, N-[(2R,4R)-2-(1H-benzimidazol-2-yl)-1-methylpiperidin-4-yl]-1-methyl-1H-indole-2-carboxamide trifluoroacetate]
